Assay results taken from article PMC3774136 (Bioorganic & medicinal chemistry letters, 2013).
Where two headings read alike, the source gives them in different places.

Experiments:
[1] = tested on: MCF-7 human breast cancer cells; assay: Growth of MCF-7 human breast cancer cells; type: cell-based; settings: compared with CA-4
tubulin = settings: read-out: Tubulin polymerization IC50; as reported in the literature; cited from earlier work
[2] = tested on: tubulin (colchicine site); settings: as reported in the literature, cited from earlier work

| SMILES | Cytotoxic activity in MCF-7 cells (in words) [1] | IC50 (tubulin) | Inhibition of binding of colchicine, % inhibition ([2]; 1 µM inhibitor) | Inhibition of binding of colchicine, % inhibition ([2]; 5 µM inhibitor) |
| --- | --- | --- | --- | --- |
| COc1cc(SSc2cc(OC)c(OC)c(OC)c2)cc(OC)c1OC [Compound 8] | inactive | – | – | – |
| COc1ccc([Se]c2ccc(OC)cc2)cc1 [Compound 12] | inactive | – | – | – |
| COc1ccc(Sc2cc(OC)c(OC)c(OC)c2)cc1[N+](=O)[O-] [Compound 2] | inactive | – | – | – |
| COc1ccc([Se][Se]c2ccc(OC)cc2)cc1 [Compound 13] | inactive | – | – | – |
| COc1ccc(Sc2cc(OC)c(OC)c(OC)c2)cc1 [Compound 1] | – | 1200 ± 100 nM | 56 ± 7% | 89 ± 1% |
